Results taken from the NIST ThermoML archive (doi:10.1007/s10765-007-0223-x).

Assay: xn = mol fraction of the nth substance listed
Details: 101 kPa, Liquid; for speed of sound: Single path-length method

COC(C)(C)C [2-methoxy-2-methylpropane] + c1ccccc1
Details | mass density [kg/m3] | speed of sound [m/s]
305.65 K, x1 = 0.052 | 856.117 | –
305.65 K, x1 = 0.111 | 846.045 | –
305.65 K, x1 = 0.202 | 831.061 | –
305.65 K, x1 = 0.303 | 815.461 | –
305.65 K, x1 = 0.397 | 801.707 | –
305.65 K, x1 = 0.5 | 787.314 | –
305.65 K, x1 = 0.596 | 774.518 | –
305.65 K, x1 = 0.698 | 761.485 | –
305.65 K, x1 = 0.791 | 750.234 | 1047.1
305.65 K, x1 = 0.902 | 737.34 | 1021.7
305.65 K, x1 = 0.95 | 731.914 | 1010.9
305.65 K, x1 = 1 | 726.444 | 1002.4
308.15 K, x1 = 0.052 | 853.44 | 1234.9
308.15 K, x1 = 0.111 | 843.388 | 1216.5
308.15 K, x1 = 0.202 | 828.417 | 1188.9
308.15 K, x1 = 0.303 | 812.827 | 1160
308.15 K, x1 = 0.397 | 799.075 | 1134.1
308.15 K, x1 = 0.5 | 784.683 | 1106.9
308.15 K, x1 = 0.596 | 771.88 | 1082.4
308.15 K, x1 = 0.698 | 758.841 | 1057.2
308.15 K, x1 = 0.791 | 747.582 | 1035.7
308.15 K, x1 = 0.902 | 734.673 | 1010.3
308.15 K, x1 = 0.95 | 729.241 | 999.43
308.15 K, x1 = 1 | 723.763 | 990.99
310.65 K, x1 = 0.052 | 850.759 | 1223.5
310.65 K, x1 = 0.111 | 840.726 | 1205.2
310.65 K, x1 = 0.202 | 825.767 | 1177.5
310.65 K, x1 = 0.303 | 810.187 | 1148.8
310.65 K, x1 = 0.397 | 796.438 | 1122.8
310.65 K, x1 = 0.5 | 782.044 | 1095.5
310.65 K, x1 = 0.596 | 769.234 | 1071.2
310.65 K, x1 = 0.698 | 756.187 | 1046
310.65 K, x1 = 0.791 | 744.918 | 1024.3
310.65 K, x1 = 0.902 | 731.995 | 998.9
310.65 K, x1 = 0.95 | 726.556 | 988.05
310.65 K, x1 = 1 | 721.069 | 979.62
313.15 K, x1 = 0.052 | 848.07 | 1212
313.15 K, x1 = 0.111 | 838.056 | 1193.8
313.15 K, x1 = 0.202 | 823.111 | 1166.3
313.15 K, x1 = 0.303 | 807.533 | 1137.4
313.15 K, x1 = 0.397 | 793.792 | 1111.5
313.15 K, x1 = 0.5 | 779.391 | 1084.2
313.15 K, x1 = 0.596 | 766.575 | 1059.8
313.15 K, x1 = 0.698 | 753.517 | 1034.6
313.15 K, x1 = 0.791 | 742.24 | 1013
313.15 K, x1 = 0.902 | 729.301 | 987.61
313.15 K, x1 = 0.95 | 723.852 | 976.7
313.15 K, x1 = 1 | 718.357 | 968.16
315.65 K, x1 = 0.052 | 845.378 | 1200.6
315.65 K, x1 = 0.111 | 835.381 | 1182.5
315.65 K, x1 = 0.202 | 820.447 | 1155
315.65 K, x1 = 0.303 | 804.877 | 1126.2
315.65 K, x1 = 0.397 | 791.135 | 1100.3
315.65 K, x1 = 0.5 | 776.733 | 1073
315.65 K, x1 = 0.596 | 763.908 | 1048.6
315.65 K, x1 = 0.698 | 750.84 | 1023.3
315.65 K, x1 = 0.791 | 739.55 | 1001.7
315.65 K, x1 = 0.902 | 726.593 | 976.23
315.65 K, x1 = 0.95 | 721.138 | 965.31
315.65 K, x1 = 1 | 715.636 | 956.8
318.15 K, x1 = 0.052 | 842.684 | 1189.4
318.15 K, x1 = 0.111 | 832.703 | 1171.3
318.15 K, x1 = 0.202 | 817.778 | 1143.8
318.15 K, x1 = 0.303 | 802.213 | 1115
318.15 K, x1 = 0.397 | 788.472 | 1089.2
318.15 K, x1 = 0.5 | 774.062 | 1061.8
318.15 K, x1 = 0.596 | 761.226 | 1037.4
318.15 K, x1 = 0.698 | 748.147 | 1012.1
318.15 K, x1 = 0.791 | 736.847 | 990.48
318.15 K, x1 = 0.902 | 723.87 | 964.92
320.65 K, x1 = 0.052 | 840.006 | 1178.4
320.65 K, x1 = 0.111 | 830.019 | 1160.1
320.65 K, x1 = 0.202 | 815.102 | 1132.6
320.65 K, x1 = 0.303 | 799.541 | 1103.9
320.65 K, x1 = 0.397 | 785.8 | 1078.1
320.65 K, x1 = 0.5 | 771.341 | 1050.4
320.65 K, x1 = 0.596 | 758.536 | 1026.2
320.65 K, x1 = 0.698 | 745.444 | 1001
320.65 K, x1 = 0.791 | 734.13 | 979.25
320.65 K, x1 = 0.902 | 721.133 | 953.72
323.15 K, x1 = 0.052 | 837.364 | 1168
323.15 K, x1 = 0.111 | 827.342 | 1149.2
323.15 K, x1 = 0.202 | 812.432 | 1121.7
323.15 K, x1 = 0.303 | 796.876 | 1093
323.15 K, x1 = 0.397 | 783.138 | 1067.2
323.15 K, x1 = 0.5 | 768.725 | 1040
323.15 K, x1 = 0.596 | 755.841 | 1015.2
323.15 K, x1 = 0.698 | 742.756 | 990.11
323.15 K, x1 = 0.791 | 731.411 | 968.17
323.15 K, x1 = 0.902 | 718.4 | 942.69
323.15 K, x1 = 0.95 | 712.917 | 931.73
323.15 K, x1 = 1 | 707.381 | 922.97
